Assay type in all cases: functional
One assay concerns the target Vanilloid receptor (Rattus norvegicus, UniProt Q9ERZ8+Q9WUD2+O35433). The assay is described as follows: Effective concentration for [Ca2+] uptake into dorsal root ganglia neurones in rat cultured spinal sensory neurones.
In the next assay the test system is Mus musculus. The assay is described as follows: In vivo analgesic dose in mouse tail flick latency model.
The species named for the next assay is Cavia porcellus. The assay is described as follows: In vitro effective dose for contraction of guinea pig ileum.

Structures are written as SMILES.

The values below come from ChEMBL document CHEMBL1127069 (J Med Chem, 1993).

For the molecule `CCCCCCCCC(=O)NC(=S)NCc1ccc(O)c(OC)c1`, at Vanilloid receptor, the EC50 is > 100 µM. Same read-out and setting: then `CCCCCCCCN/C(NCc1ccc(O)c(OC)c1)=[S+]\C.[I-]`, with > 100 µM. On Vanilloid receptor, `CCCCCCCCSC(=O)Cc1ccc(O)c(OC)c1` registered an EC50 of 1.17 µM.

Turning to `CCCCCCCCNC(=O)/C=C/c1ccc(O)c(OC)c1`, the EC50 on Vanilloid receptor is > 100 µM. On the same count and under the same terms, then `CCCCCCCCC(=O)CCc1ccc(O)c(OC)c1`, with 2.13 µM; and `CCCCCCCCN(C)/C(S)=N/Cc1ccc(O)c(OC)c1`, with 0.53 µM; and `CCCCCCCCNC(=O)C(O)c1ccc(O)c(OC)c1` (stereo unspecified), with 1.16 µM. `CCCCCCCC/N=C(\S)NCc1ccc(O)c(OC)c1` yielded an ED50 with Mus musculus of 3.2 µmol/kg. In the case of `CCCCCCCCC(=O)Nc1ccc(O)c(OC)c1`, the figures for the EC50 at Vanilloid receptor and in the assay listed under Cavia porcellus were 4.48 µM and 1.17 µM, respectively. Also, the ED50 in the assay with Mus musculus was > 50 µmol/kg. Molecule `CCCCCCCCOC(=O)Cc1ccc(O)c(OC)c1` came in with an EC50 on Vanilloid receptor of 0.67 µM. For the molecule `CCCCCCCCS(=O)(=O)NCc1ccc(O)c(OC)c1`, the values for the EC50 at Vanilloid receptor and in the assay listed under Cavia porcellus were 1.32 µM and 2.9 µM, respectively. The ED50 in the assay with Mus musculus was > 50 µmol/kg. Take `CCCCCCCCN/C(=C\[N+](=O)[O-])NCc1ccc(O)c(OC)c1`: the EC50 at Vanilloid receptor was > 100 µM. Consider `CCCCCCCC/C(S)=N\Cc1ccc(O)c(OC)c1`, for which the EC50 on Vanilloid receptor is 0.28 µM; in the assay filed under Cavia porcellus, 1.23 µM. In the assay on Mus musculus, the ED50 was determined as 38 µmol/kg. `CCCCCCCCC(=O)NCCc1ccc(O)c(OC)c1` returned a 50% effective concentration (EC50) at Vanilloid receptor of 18.3 µM. `CCCCCCCCNC(=O)Cc1ccc(O)c(OC)c1` came in with an EC50 at Vanilloid receptor of 0.3 µM. The molecule further registered an ED50 with Mus musculus of 9.2 µmol/kg.

The molecule `CCCCCCCCNC(=O)NCc1ccc(O)c(OC)c1` returned an EC50 at Vanilloid receptor of 0.36 µM. In turn, `CCCCCCCCCC(=O)Cc1ccc(O)c(OC)c1` yielded an EC50 on Vanilloid receptor of 3.78 µM. `CCCCCCCC/N=C(/S)Nc1ccc(O)c(OC)c1`: the EC50 worked out at 2.57 µM at Vanilloid receptor and 2.56 µM in the assay listed under Cavia porcellus. Also, in the assay with Mus musculus, the ED50 is > 50 µmol/kg. As for `CCCCCCCCC(=O)N(C)Cc1ccc(O)c(OC)c1`, the EC50 at Vanilloid receptor is > 100 µM.

On Vanilloid receptor, `CCCCCCCCNC(=O)CCc1ccc(O)c(OC)c1` registered an EC50 of 2.32 µM. For the molecule `CCCCCCCCCCCc1ccc(O)c(OC)c1`, the EC50 on Vanilloid receptor was > 100 µM. The same measure, in the same setting: for `CCCCCCCCC(=O)/C=C/c1ccc(O)c(OC)c1` the value was > 100 µM; for `CCCCCCCCC(=O)OCc1ccc(O)c(OC)c1`, 14.2 µM; for `CCCCCCCCN(C)C(=O)Cc1ccc(O)c(OC)c1`, 6.29 µM. Consider `CCCCCCCCNC(=O)/C=C\c1ccc(O)c(OC)c1`, for which, on Vanilloid receptor, the EC50 was 17.9 µM. Same read-out and setting: then `CCCCCCCCNC(=O)c1ccc(O)c(OC)c1`, with > 100 µM. Take `CCCCCCCC/N=C(/NC#N)NCc1ccc(O)c(OC)c1`: the values for the EC50 on Vanilloid receptor and in the assay listed under Cavia porcellus were 3.28 µM and 6.35 µM, respectively. Besides, the ED50 in the assay on Mus musculus is > 50 µmol/kg. In the case of `CCCCCCCC/N=C(/S)N(C)Cc1ccc(O)c(OC)c1`, the EC50 on Vanilloid receptor is > 100 µM. Regarding `COc1cc(CNC(=O)CCCC/C=C/C(C)C)ccc1O` [CAPSAICIN], the ED50 in the assay with Mus musculus was determined as 15 µmol/kg. In the case of `CCCCCCCCC(=O)NCc1ccc(O)c(OC)c1` [NONIVAMIDE], the 50% effect level in the assay on Mus musculus (ED50) was put at a dose of 5 µmol/kg.
